Source: PubChem BioAssay AID2305 (GlaxoSmithKline (GSK), 2010)

Test system: P. falciparum 3D7 growth, pLDH absorbance
Assay: P. falciparum 3D7 growth inhibition, dose response, strain 3D7 (AID 2305)

Compound | IC50
COc1ccc2c(c1)Sc1ccccc1C(N1CCN(CCO)CC1)C2 (stereo not given) | 1.39 µM
Cc1cc(OCCCN2CCN(CCN3CCOCC3)CC2)ccc1NC(=O)COc1ccc(Cl)cc1C(=O)c1cc(Cl)cc(C#N)c1 | 0.7 µM
Cc1ccc(C2=NNC3(S2)C(=O)N(C)c2ccccc23)cc1 (stereo not given) | 1.02 µM
O=C1C(C2CCC(c3ccc(Cl)cc3)CC2)=C2OCC3COC2(O3)c2ccccc21 (stereo not given) | 0.04 µM
COc1cc(N(Cc2ccc(F)cc2)C(=O)c2ccc(-c3ccccc3)cc2)ccc1OCCN1CCCC1 | 0.83 µM
CN(CCO)Cc1cccc(-c2ccc(NC(=O)c3cccc(C#N)c3)cc2)c1 | 0.8 µM
COCCNCc1cccc(-c2cccc(CNC3CCN(Cc4ccccc4)CC3)c2)c1 | 0.28 µM
Cc1ccc(OC2CCN(c3ccc(C(=O)NC4CC4)cn3)CC2)cc1 | 1.3 µM
O=C(NCC1CC1)C1Cc2c([nH]c3ccc(Br)cc23)C2(CCN(CCc3ccccc3)CC2)N1 (stereo not given) | 0.91 µM
CCOc1ccc(C2CCN(CCN3CCC(NC(=O)c4ccc(-c5ccc(C(F)(F)F)cc5)cc4)CC3)CC2)c(OCC2CC2)c1 | 0.83 µM
O=C(NC1CCN(c2ccnc3cc(Cl)ccc23)C1)c1ccc(F)cc1 (stereo not given) | 0.19 µM
Cc1[nH]c(C)c(-c2ccc(Oc3ccc(Cl)c(Cl)c3)cc2)c(=O)c1Br | 0.3 µM
Cc1ccc(-n2nc(-c3ccccc3)c3cc(C(=O)NCCN)sc32)cc1 | 1.37 µM
COc1cc(C2C(Oc3ccccc3)C(=O)N2Cc2ccc(F)cc2)cc(OC)c1OC (stereo not given) | 0.96 µM
Cc1cc(N[C@@H](CC(C)C)C(=O)NC2CCCC2)nc(NCc2ccccc2C)n1 | 1.34 µM
COc1ccc(CNCc2ccsc2)cc1-c1ccc(S(=O)(=O)NCCN2CCCC2)s1 | 0.77 µM
CC(=O)c1ccc2cc(C(=O)NC3CCC(CCN4CCc5ccc(-c6noc(C)n6)cc5CC4)CC3)[nH]c2c1 (stereo not given) | 0.95 µM
Cc1nc(-c2ccc(-c3ccc(NC(=O)c4coc5ccc(N6C[C@@H](C)N(C)[C@@H](C)C6)cc45)cc3)c(C)c2)no1 | 0.77 µM
NC1=NC2(CCCCC2)N(OCC2CCCCC2)C(N)=N1 | 0.15 µM
CC[C@H]1CN2CC[C@H]1C[C@H]2[C@H](OC(=O)c1ccccc1)c1cc(C#N)nc2ccc(OC)cc12 | 0.91 µM

Compound | IC50
NC1CCCN(Cc2ccc(-c3cccc(-c4nc5ccc(F)cc5[nH]4)c3)cc2)C1 (stereo not given) | 0.64 µM
C[C@H](Nc1c(Nc2ccc3[nH]ccc3c2)c(=O)c1=O)C1CCCCC1 | 0.21 µM
Cc1noc(-c2ccc(O)cc2O)c1-c1ccc2c(c1)OCCCO2 | 0.89 µM
O=C(NC1CCCC1)c1cc2c(=O)n3ccccc3nc2nc1NCCc1ccccc1 | 0.65 µM
COc1cc(NC(=O)c2c(-c3c(Cl)cccc3Cl)noc2C)c(OC)cc1Cl | 0.92 µM
COc1ccc2nccc([C@@H](O)CN3CCC(NCc4cc5cccnc5[nH]4)CC3)c2n1 | 0.96 µM
CC1CCN(C(=O)CSc2nc(-c3ccc(C(C)C)cc3)no2)CC1 | 1.35 µM
NC(=NCc1ccccc1)Nc1nc(-c2ccc(OCCCn3ccnc3)cc2)cs1 | 0.25 µM
Cc1cccc2[nH]c(-c3ccc(-c4ccc(CNCC(C)C)cc4)cc3)nc12 | 0.41 µM
Cc1c(C)c2c(c(C)c1O)CCC(C)(CCC(=O)O)O2 (stereo not given) | 0.69 µM
CC(C)CNCc1ccc(-c2cccc(CN(CCN(C)C)C(=O)CCC3CCCC3)c2)cc1 | 0.81 µM
Cc1nc2nc(N)nc(N)c2c(C)c1Cc1cccc(C(F)(F)F)c1 | 1.29 µM
CCN(CC)CCN(Cc1ccc(-c2ccc(C(F)(F)F)cc2)cc1)C(=O)Cn1c(CCc2ccc(F)c(F)c2F)nc(=O)c2cccnc21 | 1.13 µM
CCC(C)c1ccc(O)c(NC(=O)c2cncc(Br)c2)c1 (stereo not given) | 0.8 µM
CCN(CC)CCOC(=O)C(OC)(c1ccccc1)c1ccccc1 | 1.02 µM
Clc1ccc2c(NN=Cc3ccco3)ccnc2c1 | 1.1 µM
Cc1cccc2[nH]c(-c3cccc(-c4cccc(NC(=O)c5cncn5C)c4)c3)nc12 | 0.17 µM
COc1cccc2c1CCN(CCN1CCC(NC(=O)c3ccc(-c4cccc(Cl)c4Cl)cc3)CC1)C2 | 0.7 µM
O=C(NCCC1CCN(CCc2c[nH]c3ccccc23)CC1)Nc1ccc(Cl)c(Cl)c1 | 0.83 µM
COc1c(I)cc(Cc2cnc(N)nc2N)cc1I | 0.93 µM
